From PubChem BioAssay AID588780 (Sanford-Burnham Center for Chemical Genomics, 2011)
Calls of active or inactive are those of the source.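 Rule for the calls: active = compounds whose fitted half-maximal concentration in the cell-protection dose series is at or below a set limit; inactive = the rest.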

system: H9c2 cardiomyocytes, 2-deoxyglucose stress, ATP luminescence, 2 h; test: H9c2 cell survival under 2-deoxyglucose stress – uHTS hits, dose response (AID 588780)

How did the IC50 turn out when `COc1cccc(-c2nnc(NC(=O)c3ccc(S(=O)(=O)N(CC(C)C)CC(C)C)cc3)o2)c1` was run?
Its IC50 is > 79 µM (inactive).

With `O=C1Nc2ccccc2C(=O)C1(Cl)Cc1ccccc1` (configuration not stated) as the molecule, how does the IC50 read?
Its IC50 is > 79 µM (inactive).

Which IC50 does the source give for `CN(CC(=O)Nc1cccc(F)c1)C(=O)Cc1n[nH]c(=O)c2ccccc12` here?
The IC50 was > 79 µM (inactive).

Which IC50 does the source give for `COc1ccc(N=Cc2cc(Cl)ccc2O)cc1Cl` here?
Its IC50 is > 79 µM (inactive).

How did the IC50 turn out when `O=C(CCCn1c(SCC(=O)c2ccc(O)c(O)c2)nc2ccccc2c1=O)NCC1CCCO1` (configuration not stated) was run?
The IC50 was 38.7 µM (inactive).

How did the IC50 turn out when `COc1cccc(/C=N/NC(=O)c2nc(-c3ccccc3)cc(-c3ccccc3)n2)c1` was run?
The IC50 was > 79 µM (inactive).

How did the IC50 turn out when `Cc1ccc(C)c(C(=O)COC(=O)Cn2[nH]c(=O)c3ccccc3c2=O)c1` was run?
Its IC50 is > 79 µM (inactive).

How did the IC50 turn out when `Cc1csc2nc(COC(=O)c3ccc(Cl)c([N+](=O)[O-])c3)cc(=O)n12` was run?
The IC50 was > 79 µM (inactive).

Which IC50 does the source give for `Nc1ncc(-c2ccccc2)n1CC1CCCO1` (configuration not stated) here?
The IC50 was > 79 µM (inactive).

How did the IC50 turn out when `O=C(CCS(=O)(=O)c1ccccc1)Nc1nc(-c2ccccn2)cs1` was run?
The IC50 was 31.3 µM (inactive).

`COc1ccc2[nH]c(=O)c(CN(Cc3ccco3)C(c3nnnn3Cc3ccccc3)C(C)C)cc2c1` (configuration not stated) was tested. Which IC50 did it give?
The IC50 was > 79 µM (inactive).

`CCOC(=O)C1=C(C)NC(C)=C(C(=O)OCC)C1C(=O)OCC(=O)NC(C)C` was tested. Which IC50 did it give?
Its IC50 is 19.7 µM.

For `N#CCCN(C(=O)COC(=O)CCc1nc2ccccc2c(=O)[nH]1)c1ccccc1F`, which IC50 is on record?
Its IC50 is > 79 µM (inactive).

For `COc1ccc(C(=O)Nc2cccc(/C(C)=N/NC(=O)c3ccc([N+](=O)[O-])c(C)c3)c2)cc1OC`, which IC50 is on record?
The IC50 was > 79 µM (inactive).

How did the IC50 turn out when `CC(=O)c1ccc(-c2cnc3c(NC=O)cc(-c4cccc(C(=O)N(C)C)c4)cn23)cc1` was run?
The IC50 was 14 µM.

How did the IC50 turn out when `CCOC(=O)c1cc2c(=O)n3cccc(C)c3nc2n(CCCOC)c1=NC(=O)c1cccnc1` was run?
The IC50 was > 79 µM (inactive).

Which IC50 does the source give for `COc1cccc(C(c2nnnn2Cc2ccccc2)N2CCN(C3CCCC3)CC2)c1OC` (configuration not stated) here?
The IC50 was 35.5 µM (inactive).

How did the IC50 turn out when `COc1cc(/C=N/NC(=O)c2cccnc2)ccc1OS(=O)(=O)c1cc(C)ccc1C` was run?
Its IC50 is > 79 µM (inactive).

How did the IC50 turn out when `COc1cc(-c2cc(NC=O)c3ncc(-c4cccc(C(F)(F)F)c4)n3c2)cc(OC)c1OC` was run?
Its IC50 is > 79 µM (inactive).

`Cc1cc(C)cc(C(=O)Nc2ccc(NC(=O)c3cccs3)cc2)c1` was tested. Which IC50 did it give?
The IC50 was > 79 µM (inactive).

`COc1ccc(-c2cc3nc(C)cc(N4CCN(C(=O)c5ccoc5)CC4)n3n2)cc1` was tested. Which IC50 did it give?
Its IC50 is 51.7 µM (inactive).

For `O=C(OCc1cc(=O)n2ccsc2n1)c1ccc(O)cc1O`, which IC50 is on record?
Its IC50 is > 79 µM (inactive).

With `CN(C)CCNc1ccc(-c2n[nH]c(=O)c3ccccc23)cc1[N+](=O)[O-]` as the molecule, how does the IC50 read?
Its IC50 is > 79 µM (inactive).

`COc1cc(-c2cc(NC=O)c3ncc(-c4ccc(C(C)=O)cc4)n3c2)ccc1O` was tested. Which IC50 did it give?
Its IC50 is > 79 µM (inactive).

Which IC50 does the source give for `COc1cccc(NC(=O)COc2cccc3c2CCNC3=O)c1` here?
Its IC50 is 54.5 µM (inactive).

Which IC50 does the source give for `CC(OC(=O)Cc1n[nH]c(=O)c2ccccc12)C(=O)Nc1cc(Cl)cc(Cl)c1` (configuration not stated) here?
Its IC50 is 22.7 µM.

How did the IC50 turn out when `CCOc1ccc(C(C(=O)NC2CCCC2)N(C(=O)c2snc(C(N)=O)c2N)c2cccc(O)c2)cc1` (configuration not stated) was run?
The IC50 was > 79 µM (inactive).

Which IC50 does the source give for `COCCn1ccc2c(OCC(=O)Nc3ccccc3OC)cccc2c1=O` here?
The IC50 was 20.8 µM.

How did the IC50 turn out when `CCN1CCN(c2nc3c(c(=O)[nH]2)CCC3)CC1` was run?
The IC50 was > 79 µM (inactive).

Which IC50 does the source give for `O=c1[nH]cnc2sc3c(c12)CCC3` here?
Its IC50 is > 79 µM (inactive).

With `O=c1[nH]n(Cc2ccccc2)c(=O)c2ccccc12` as the molecule, how does the IC50 read?
Its IC50 is > 79 µM (inactive).

Which IC50 does the source give for `COc1ccc(C(=O)Nc2nc(-c3ccccn3)cs2)cc1S(=O)(=O)N1CCOCC1` here?
The IC50 was 16.1 µM.

For `COc1cc(/C=C/C(=O)Nc2ccc3nc4n(c(=O)c3c2)CCCC4)cc(OC)c1OC`, which IC50 is on record?
The IC50 was 24.2 µM.

For `O=C(Nc1nnc(C2CC2)s1)c1cc(-c2ccccc2)nn1-c1ccccc1`, which IC50 is on record?
Its IC50 is > 79 µM (inactive).

Which IC50 does the source give for `NC(=O)c1nsc(C(=O)N(CCc2ccccc2)C(C(=O)NC2CCCC2)c2ccco2)c1N` (configuration not stated) here?
The IC50 was 22.4 µM.

How did the IC50 turn out when `COc1c(O)cccc1/C=N/NC(=O)Cn1ccnc1C` was run?
Its IC50 is > 79 µM (inactive).

For `CC1(C(=O)Nc2cccc(OC(F)(F)F)c2)Cc2c(-c3ccc(C(N)=O)cc3)ccnc2O1` (configuration not stated), which IC50 is on record?
The IC50 was > 79 µM (inactive).

With `COc1ccc(-n2c(C)c(C(C)=O)c3cc(OC(C)=O)ccc32)cc1` as the molecule, how does the IC50 read?
Its IC50 is 25.2 µM.

With `CCOC(=O)COc1cccc(C2NC(=O)c3ccccc3O2)c1` (configuration not stated) as the molecule, how does the IC50 read?
The IC50 was > 79 µM (inactive).

How did the IC50 turn out when `COc1ccc(C(=O)COC(=O)Cn2[nH]c(=O)c3ccccc3c2=O)c(OC)c1` was run?
Its IC50 is > 79 µM (inactive).

Which IC50 does the source give for `Cc1ccc(C(=O)N/N=C\c2ccc(-c3ccc(Cl)cc3)o2)cn1` here?
The IC50 was 9.3 µM.

With `COc1ccc(NC(=O)c2cc(-c3ccccn3)nc3ccccc23)cc1S(=O)(=O)N(C)C` as the molecule, how does the IC50 read?
The IC50 was > 79 µM (inactive).

`COc1cccc(/C=N/Nc2nc3ccccc3n3cnnc23)c1` was tested. Which IC50 did it give?
The IC50 was > 79 µM (inactive).

Which IC50 does the source give for `COc1cc2c(cc1OC)CN(c1nc(-c3cccnc3)nc3ccccc13)CC2` here?
The IC50 was > 79 µM (inactive).

`CCN(C[C@H]1N[C@@](CC)(C(=O)OC)[C@H]2C(=O)N(Cc3ccccc3)C(=O)[C@@H]12)C(=O)c1ccc(C(C)(C)C)cc1` was tested. Which IC50 did it give?
The IC50 was > 79 µM (inactive).

Which IC50 does the source give for `Cc1cc(NC(=O)COc2nnc(-c3ccccc3)c3ccccc23)no1` here?
The IC50 was > 79 µM (inactive).

Which IC50 does the source give for `COc1cccc(C(=O)CSc2nnc(-c3cc(OC)c(OC)c(OC)c3)o2)c1` here?
The IC50 was > 79 µM (inactive).

`O=C(C[C@H]1C/C=C\CC[C@H](Cc2ccc(F)cc2)C(=O)O[C@@H](c2ccccc2)CNC1=O)N[C@H](CO)Cc1ccccc1` was tested. Which IC50 did it give?
The IC50 was > 79 µM (inactive).

Which IC50 does the source give for `C/C(=N\Nc1nnc2c3ccccc3n(C)c2n1)c1ccc(C)o1` here?
The IC50 was > 79 µM (inactive).

`Cc1ccc(Cn2c(CCNc3nc(-c4ccc(Cl)c([N+](=O)[O-])c4)cs3)nc3cc(C(=O)NCCCO)ccc32)cc1` was tested. Which IC50 did it give?
The IC50 was > 79 µM (inactive).

For `COc1cc(/C=C(\C#N)C(=O)Nc2ccccc2F)ccc1OCCN1CCOCC1`, which IC50 is on record?
Its IC50 is 25.9 µM.

Which IC50 does the source give for `Cc1c(O)ccc2c3c(c(=O)oc12)CCC(C)C3` (configuration not stated) here?
The IC50 was 15.9 µM.

How did the IC50 turn out when `CC(C)(C)N=Cc1c(O)ccc2oc3c(c12)CCCC3` was run?
The IC50 was > 79 µM (inactive).

With `COc1ccc(OC)c(NC(=O)c2sc3ncnc(N4CCN(c5ccccn5)CC4)c3c2C)c1` as the molecule, how does the IC50 read?
Its IC50 is > 79 µM (inactive).

How did the IC50 turn out when `CCOC(=O)c1nn(-c2cccc(OC)c2)c2nc(Nc3ccccc3)cc(=O)n12` was run?
The IC50 was > 79 µM (inactive).

For `CC(OC(=O)Cn1[nH]c(=O)c2ccccc2c1=O)C(=O)Nc1ccc(F)cc1` (configuration not stated), which IC50 is on record?
The IC50 was > 79 µM (inactive).

Which IC50 does the source give for `CC1Cc2ccccc2N1C(=O)c1cc2c(=O)n3ccccc3nc2n1C` (configuration not stated) here?
The IC50 was > 79 µM (inactive).

Which IC50 does the source give for `Cc1ccc(C)c(S(=O)(=O)N2CCN(C(=O)Cn3[nH]c(=O)c4ccccc4c3=O)CC2)c1` here?
The IC50 was > 79 µM (inactive).

How did the IC50 turn out when `O=C(CCc1nc2ccccc2c(=O)[nH]1)N1CCN(S(=O)(=O)c2cccc([N+](=O)[O-])c2)CC1` was run?
Its IC50 is > 79 µM (inactive).

Which IC50 does the source give for `CCOC(=O)N1CCN(S(=O)(=O)c2ccc(C(=O)NNc3nc4c(C)cccc4s3)cc2)CC1` here?
The IC50 was > 79 µM (inactive).

`Oc1ccc(Cl)cc1C=Nc1ccc2c3c(cccc13)CC2` was tested. Which IC50 did it give?
Its IC50 is > 79 µM (inactive).

`Cc1ccc(C)c2[nH]c(=O)c(CN(Cc3ccc4c(c3)OCO4)Cc3nnnn3Cc3ccco3)cc12` was tested. Which IC50 did it give?
The IC50 was 13.1 µM.

For `COc1ccc(/C=N/NC(=O)c2cc(-c3ccc4c(c3)OCO4)n[nH]2)cc1OC`, which IC50 is on record?
Its IC50 is > 79 µM (inactive).

How did the IC50 turn out when `Cc1sc2nc(SCC(=O)NCc3ccco3)[nH]c(=O)c2c1C` was run?
The IC50 was > 79 µM (inactive).

With `Cc1ccc(NCc2ccc(O)c3ncccc23)cc1C` as the molecule, how does the IC50 read?
Its IC50 is > 79 µM (inactive).

Which IC50 does the source give for `Oc1ccc(Cl)cc1C=Nc1ccc(Br)cc1` here?
The IC50 was > 79 µM (inactive).

`CCC(Oc1ccccc1)C(=O)Nc1ccccc1C(=O)N1CCCCC1` (configuration not stated) was tested. Which IC50 did it give?
Its IC50 is 25.3 µM.
